Source: PubChem BioAssay AID1259407 (Chemical Carcinogenesis Research Information System (CCRIS), 2018)
The source made the active and inactive calls. How the calls were made is not given here.

Tested on: CCRIS mutagenicity, Ames/micronucleus/aberration tests
Test: CCRIS mutagenicity studies
[1] = Test System: AMES SALMONELLA TYPHIMURIUM, Strain/Indicator: TA100, Metabolic Activation: NONE, Method: PREINCUBATION
[2] = Test System: AMES SALMONELLA TYPHIMURIUM, Strain/Indicator: TA1535, Metabolic Activation: NONE, Method: PREINCUBATION
[3] = Test System: AMES SALMONELLA TYPHIMURIUM, Strain/Indicator: TA98, Metabolic Activation: NONE, Method: STANDARD PLATE
[4] = Test System: AMES SALMONELLA TYPHIMURIUM, Strain/Indicator: TA100, Metabolic Activation: NONE, Method: STANDARD PLATE

## CCCCCCC(C)(C)C(=O)OCC1CO1 (stereo not given)
Test System: AMES SALMONELLA TYPHIMURIUM, Strain/Indicator: TA100, Metabolic Activation: HAMSTER, LIVER, S-9, AROCLOR 1254 (30%), Method: PREINCUBATION
  mutagenic call: active; positive
[1]
  mutagenic call: inactive; negative
Test System: AMES SALMONELLA TYPHIMURIUM, Strain/Indicator: TA100, Metabolic Activation: RAT, LIVER, S-9, AROCLOR 1254 (30%), Method: PREINCUBATION
  mutagenic call: active; positive
Test System: AMES SALMONELLA TYPHIMURIUM, Strain/Indicator: TA1535, Metabolic Activation: HAMSTER, LIVER, S-9, AROCLOR 1254 (30%), Method: PREINCUBATION
  mutagenic call: active; positive
[2]
  mutagenic call: inactive; negative
Test System: AMES SALMONELLA TYPHIMURIUM, Strain/Indicator: TA1535, Metabolic Activation: RAT, LIVER, S-9, AROCLOR 1254 (30%), Method: PREINCUBATION
  mutagenic call: active; positive

## ClCCC(Br)CBr (stereo not given)
Test System: AMES SALMONELLA TYPHIMURIUM, Strain/Indicator: TA100, Metabolic Activation: RAT, LIVER, MICROSOMES, PHENOBARBITAL, Method: PREINCUBATION
  mutagenic call: inactive; negative
Test System: AMES SALMONELLA TYPHIMURIUM, Strain/Indicator: TA100, Metabolic Activation: RAT, LIVER, MICROSOMES, Method: PREINCUBATION
  mutagenic call: inactive; negative

## c1cnc2c(c1)ccc1ncccc12
Test System: AMES SALMONELLA TYPHIMURIUM, Strain/Indicator: TA100, Metabolic Activation: RAT, LIVER, S-9, PHENOBARBITAL AND 5,6-BENZOFLAVONE, Method: PREINCUBATION
  mutagenic call: active; positive

## C1CCC2OCCOCCOC3CCCCC3OCCOCCOC2C1 (stereo not given)
[3]
  mutagenic call: inactive; negative
Test System: AMES SALMONELLA TYPHIMURIUM, Strain/Indicator: TA98, Metabolic Activation: RAT, LIVER, S-9, AROCLOR 1254, Method: STANDARD PLATE
  mutagenic call: inactive; negative
[4]
  mutagenic call: inactive; negative
Test System: AMES SALMONELLA TYPHIMURIUM, Strain/Indicator: TA100, Metabolic Activation: RAT, LIVER, S-9, AROCLOR 1254, Method: STANDARD PLATE
  mutagenic call: inactive; negative
Test System: AMES SALMONELLA TYPHIMURIUM, Strain/Indicator: TA1530, Metabolic Activation: NONE, Method: STANDARD PLATE
  mutagenic call: inactive; negative
Test System: AMES SALMONELLA TYPHIMURIUM, Strain/Indicator: TA1530, Metabolic Activation: RAT, LIVER, S-9, AROCLOR 1254, Method: STANDARD PLATE
  mutagenic call: inactive; negative
Test System: AMES SALMONELLA TYPHIMURIUM, Strain/Indicator: TA1537, Metabolic Activation: NONE, Method: STANDARD PLATE
  mutagenic call: inactive; negative
Test System: AMES SALMONELLA TYPHIMURIUM, Strain/Indicator: TA1537, Metabolic Activation: RAT, LIVER, S-9, AROCLOR 1254, Method: STANDARD PLATE
  mutagenic call: inactive; negative

## CC(=O)Nc1ccc(N)cc1
Test System: AMES SALMONELLA TYPHIMURIUM, Strain/Indicator: TA97, Metabolic Activation: HAMSTER, LIVER, S-9, AROCLOR 1254 (10%), Method: PREINCUBATION
  mutagenic call: inactive; negative
Test System: AMES SALMONELLA TYPHIMURIUM, Strain/Indicator: TA97, Metabolic Activation: NONE, Method: PREINCUBATION
  mutagenic call: inactive; negative
Test System: AMES SALMONELLA TYPHIMURIUM, Strain/Indicator: TA97, Metabolic Activation: RAT, LIVER, S-9, AROCLOR 1254 (10%), Method: PREINCUBATION
  mutagenic call: inactive; negative
Test System: AMES SALMONELLA TYPHIMURIUM, Strain/Indicator: TA98, Metabolic Activation: HAMSTER, LIVER, S-9, AROCLOR 1254 (10%), Method: PREINCUBATION
  mutagenic call: active; positive
Test System: AMES SALMONELLA TYPHIMURIUM, Strain/Indicator: TA98, Metabolic Activation: NONE, Method: PREINCUBATION
  mutagenic call: inactive; negative
Test System: AMES SALMONELLA TYPHIMURIUM, Strain/Indicator: TA98, Metabolic Activation: RAT, LIVER, S-9, AROCLOR 1254 (10%), Method: PREINCUBATION
  mutagenic call: active; positive
Test System: AMES SALMONELLA TYPHIMURIUM, Strain/Indicator: TA100, Metabolic Activation: HAMSTER, LIVER, S-9, AROCLOR 1254 (10%), Method: PREINCUBATION
  mutagenic call: inactive; negative
[1]
  mutagenic call: inactive; negative
Test System: AMES SALMONELLA TYPHIMURIUM, Strain/Indicator: TA100, Metabolic Activation: RAT, LIVER, S-9, AROCLOR 1254 (10%), Method: PREINCUBATION
  mutagenic call: inactive; negative
Test System: AMES SALMONELLA TYPHIMURIUM, Strain/Indicator: TA1535, Metabolic Activation: HAMSTER, LIVER, S-9, AROCLOR 1254 (10%), Method: PREINCUBATION
  mutagenic call: inactive; negative
[2]
  mutagenic call: inactive; negative
Test System: AMES SALMONELLA TYPHIMURIUM, Strain/Indicator: TA1535, Metabolic Activation: RAT, LIVER, S-9, AROCLOR 1254 (10%), Method: PREINCUBATION
  mutagenic call: inactive; negative
Test System: Ames Salmonella typhimurium, Strain/Indicator: TA98, Metabolic Activation: None, Method: Standard Plate
  mutagenic call: inactive; negative
Test System: Ames Salmonella typhimurium, Strain/Indicator: TA100, Metabolic Activation: None, Method: Standard Plate
  mutagenic call: inactive; negative
Test System: Ames Salmonella typhimurium, Strain/Indicator: TA102, Metabolic Activation: None, Method: Standard Plate
  mutagenic call: inactive; negative
Test System: Ames Salmonella typhimurium, Strain/Indicator: TA1535, Metabolic Activation: None, Method: Standard Plate
  mutagenic call: inactive; negative
Test System: Ames Salmonella typhimurium, Strain/Indicator: TA1537, Metabolic Activation: None, Method: Standard Plate
  mutagenic call: inactive; negative
Test System: UDS RODENT HEPATOCYTES, Strain/Indicator: THY INCORP (NON-S-PHASE), Metabolic Activation: NONE, Method: AUTORADIOGRAPHY
  mutagenic call: inactive; negative

## Cc1cccc(C(=O)ON(OCc2ccccc2)C(=O)c2ccccc2)c1
[4]
  mutagenic call: active; positive
Test System: AMES SALMONELLA TYPHIMURIUM, Strain/Indicator: TA100, Metabolic Activation: RAT, S-9, AROCLOR, Method: STANDARD PLATE
  mutagenic call: active; positive

## Nc1ncc(/C=C/c2ccc([N+](=O)[O-])o2)nn1
Test System: E. COLI, Strain/Indicator: WP2, Metabolic Activation: NONE, Method: SPOT
  mutagenic call: active; positive
Test System: E. COLI, Strain/Indicator: WP2 UVRA, Metabolic Activation: NONE, Method: SPOT
  mutagenic call: active; positive
Test System: E. COLI, Strain/Indicator: WP2 UVRA, Metabolic Activation: NONE, Method: STANDARD PLATE
  mutagenic call: active; positive

## Oc1ccccc1-c1nc2ccccc2o1
[3]
  mutagenic call: inactive; negative
Test System: AMES SALMONELLA TYPHIMURIUM, Strain/Indicator: TA98, Metabolic Activation: S-9, Method: STANDARD PLATE
  mutagenic call: inactive; negative

## O=C(Nc1ccc(Cl)cc1)c1csc([N+](=O)[O-])c1
[3]
  mutagenic call: active; positive
[4]
  mutagenic call: active; positive

## O=C1C=CC(=O)C1(Cl)Cl
[4]
  mutagenic call: active; positive
